According to patent US5126336A, “Antibiotic C-3 catechol-substituted cephalosporin compounds, compositions and method of use thereof” (Bristol-Myers Squibb Company, priority 1990, dated 1992):
Converted amounts (≈) assume the structure as drawn.

Legend:
Type in all cases: cell-based
B. subtilis PCI 219 = experiment: MIC, agar dilution; details: Bacillus subtilis, PCI219, Mueller-Hinton agar pH 7.2, 32° C., 18 hr, 10^6 cells/ml
Experimental: (§1) Minimum inhibitory concentrations (MICs) of the present series of cephalosporins were determined against 32 strains of test organisms by two-fold serial agar dilution method in Mueller-Hinton agar. Geometric means of MICs were calculated against six groups of the test organisms which are classified as follows and summarized in Table 1.
(§2) Medium; MuellerHinton agar (pH = 7.2)
(§3) Incubation temperature: 32° C., 18 hr
(§4) Inoculum size; 10^6 cells/ml

C. freundii GN 7391 = experiment: MIC, agar dilution; details: Citrobacter freundii, GN7391, Mueller-Hinton agar pH 7.2, 32° C., 18 hr, 10^6 cells/ml
Experimental: as §1, §2, §3, §4

C. terrigena IFO 12685 = experiment: MIC, agar dilution; details: Mueller-Hinton agar pH 7.2, 32° C., 18 hr, 10^6 cells/ml
Experimental: as §1, §2, §3, §4

E. cloacae IPM-12 = experiment: MIC, agar dilution; details: Enterobacter cloacae, IPM12, Mueller-Hinton agar pH 7.2, 32° C., 18 hr, 10^6 cells/ml
Experimental: as §1, §2, §3, §4

E. coli 255 = experiment: MIC, agar dilution; details: Escherichia coli, Mueller-Hinton agar pH 7.2, 32° C., 18 hr, 10^6 cells/ml
Experimental: as §1, §2, §3, §4

E. faecalis A9808 = experiment: MIC, agar dilution; details: Enterococcus faecalis, Mueller-Hinton agar pH 7.2, 32° C., 18 hr, 10^6 cells/ml
Experimental: as §1, §2, §3, §4

E. faecium A24817 = experiment: MIC, agar dilution; details: Enterococcus faecium, Mueller-Hinton agar pH 7.2, 32° C., 18 hr, 10^6 cells/ml
Experimental: as §1, §2, §3, §4

K. pneumoniae PCI 602 = experiment: MIC, agar dilution; details: Klebsiella pneumoniae, PCI602, Mueller-Hinton agar pH 7.2, 32° C., 18 hr, 10^6 cells/ml
Experimental: as §1, §2, §3, §4

M. luteus 1001 = experiment: MIC, agar dilution; details: Micrococcus luteus, Mueller-Hinton agar pH 7.2, 32° C., 18 hr, 10^6 cells/ml
Experimental: as §1, §2, §3, §4

M. morgani 1510/9 = experiment: MIC, agar dilution; details: Mueller-Hinton agar pH 7.2, 32° C., 18 hr, 10^6 cells/ml
Experimental: as §1, §2, §3, §4

M. morgani 1510 = experiment: MIC, agar dilution; details: Mueller-Hinton agar pH 7.2, 32° C., 18 hr, 10^6 cells/ml
Experimental: as §1, §2, §3, §4

P. aeruginosa A20599 = experiment: MIC, agar dilution; details: Pseudomonas aeruginosa, Mueller-Hinton agar pH 7.2, 32° C., 18 hr, 10^6 cells/ml
Experimental: as §1, §2, §3, §4

P. aeruginosa IPM-8 = experiment: MIC, agar dilution; details: Pseudomonas aeruginosa, IPM8, Mueller-Hinton agar pH 7.2, 32° C., 18 hr, 10^6 cells/ml
Experimental: as §1, §2, §3, §4

P. aeruginosa IPM-9 = experiment: MIC, agar dilution; details: Pseudomonas aeruginosa, IPM9, Mueller-Hinton agar pH 7.2, 32° C., 18 hr, 10^6 cells/ml
Experimental: as §1, §2, §3, §4

P. aeruginosa KKA 19 = experiment: MIC, agar dilution; details: Pseudomonas aeruginosa, KKA19, Mueller-Hinton agar pH 7.2, 32° C., 18 hr, 10^6 cells/ml
Experimental: as §1, §2, §3, §4

P. cepacia A21213 = experiment: MIC, agar dilution; details: Burkholderia cepacia, Mueller-Hinton agar pH 7.2, 32° C., 18 hr, 10^6 cells/ml
Experimental: as §1, §2, §3, §4

P. cepacia No. 651 = experiment: MIC, agar dilution; details: Burkholderia cepacia, Mueller-Hinton agar pH 7.2, 32° C., 18 hr, 10^6 cells/ml
Experimental: as §1, §2, §3, §4

P. mirabilis IFO-2849 = experiment: MIC, agar dilution; details: Proteus mirabilis, IFO2849, Mueller-Hinton agar pH 7.2, 32° C., 18 hr, 10^6 cells/ml
Experimental: as §1, §2, §3, §4

P. rettgeri IPM-14 = experiment: MIC, agar dilution; details: Providencia rettgeri, IPM14, Mueller-Hinton agar pH 7.2, 32° C., 18 hr, 10^6 cells/ml
Experimental: as §1, §2, §3, §4

P. vulgaris IPM-13 = experiment: MIC, agar dilution; details: Proteus vulgaris, IPM13, Mueller-Hinton agar pH 7.2, 32° C., 18 hr, 10^6 cells/ml
Experimental: as §1, §2, §3, §4

S. aureus 209P = experiment: MIC, agar dilution; details: Staphylococcus aureus; S. aureus 209P; Mueller-Hinton agar pH 7.2; 32° C., 18 hr; 10^6 cells/ml; read-out: MIC
Experimental: as §1, §2, §3, §4

S. aureus 4-1015 (MRSA) = experiment: MIC, agar dilution; details: Staphylococcus aureus, Mueller-Hinton agar pH 7.2, 32° C., 18 hr, 10^6 cells/ml
Experimental: as §1, §2, §3, §4

S. aureus IPM-24 (MRSA) = experiment: MIC, agar dilution; details: Staphylococcus aureus, Mueller-Hinton agar pH 7.2, 32° C., 18 hr, 10^6 cells/ml
Experimental: as §1, §2, §3, §4

S. epidermidis 11-1230 = experiment: MIC, agar dilution; details: Staphylococcus epidermidis, 111230, Mueller-Hinton agar pH 7.2, 32° C., 18 hr, 10^6 cells/ml
Experimental: as §1, §2, §3, §4

S. marcescens IPM-15 = experiment: MIC, agar dilution; details: Serratia marcescens, IPM15, Mueller-Hinton agar pH 7.2, 32° C., 18 hr, 10^6 cells/ml
Experimental: as §1, §2, §3, §4

S. marcescens IPM-16 = experiment: MIC, agar dilution; details: Serratia marcescens, IPM16, Mueller-Hinton agar pH 7.2, 32° C., 18 hr, 10^6 cells/ml
Experimental: as §1, §2, §3, §4

X. maltophilia GN 12873 = experiment: MIC, agar dilution; details: Stenotrophomonas maltophilia, GN12873, Mueller-Hinton agar pH 7.2, 32° C., 18 hr, 10^6 cells/ml
Experimental: as §1, §2, §3, §4

X. maltophilia No. 661 = experiment: MIC, agar dilution; details: Stenotrophomonas maltophilia, Mueller-Hinton agar pH 7.2, 32° C., 18 hr, 10^6 cells/ml
Experimental: as §1, §2, §3, §4

E. coli Juhl A15119 = experiment: MIC, agar dilution; details: Escherichia coli, JUHLA15119; E. coli Juhl A15119; Mueller-Hinton agar pH 7.2; 32° C., 18 hr; 10^6 cells/ml; read-out: MIC
Experimental: as §1
(§5) In vivo antibacterial activity was determined against three bacterial infections (S. aureus Smith, E. coli Juhl and P. aeruginosa A9843A) by intramuscular administration to mice just after the bacterial challenge. PD50 values are summarized in Table 3 in comparsion with the MIC values against the corresponding organisms.
as §2, §3, §4

P. aeruginosa A9843A = experiment: MIC, agar dilution; details: Pseudomonas aeruginosa, A9843A, 18 h, pH 7.2
Experimental: as §1, §5, §2, §3, §4

S. aureus Smith = experiment: MIC, agar dilution; details: Staphylococcus aureus; S. aureus Smith; Mueller-Hinton agar pH 7.2; 32° C., 18 hr; 10^6 cells/ml; read-out: MIC
Experimental: as §1, §5, §2, §3, §4

[1] = test system: Gp-Ia: Penicillin(PC)-sensitive S. aureus (5 strains); experiment: MIC, two-fold serial agar dilution, Gp-Ia; details: Staphylococcus aureus, Mueller-Hinton agar, read-out: Geometric mean of MIC
Experimental: as §1
Gp-Ia Penicillin(PC)-sensitive S. aureus (5 strains).

[2] = test system: Gp-Ib: Penicillin(PC)-resistant S. aureus (5); experiment: MIC, two-fold serial agar dilution, Gp-Ib; details: Staphylococcus aureus, 5 strains, Mueller-Hinton agar, read-out: Geometric mean of MIC
Experimental: as §1
Gp-Ib Penicillin(PC)-resistant S. aureus (5).

[3] = test system: Gn-Ia: Cephalothin(CET)-sensitive E. coli (2), Kl. pneumoniae (1) and Pr. mirabilis (2); experiment: MIC, two-fold serial agar dilution, Gn-Ia; details: 5 strains, Mueller-Hinton agar, read-out: Geometric mean of MIC
Experimental: as §1
Gn-Ia Cephalothin(CET)-sensitive E. coli (2), Kl.
pneumoniae (1) and Pr. mirabilis (2).

[4] = test system: Gn-Ib: Cephalothin(CET)-resistant E. coli (3) and Kl. pneumoniae (2); experiment: MIC, two-fold serial agar dilution, Gn-Ib; details: Escherichia coli, read-out: Geometric mean of MIC, Gn-Ib, 5 strains; Mueller-Hinton agar
Experimental: as §1
Gn-Ib Cephalothin(CET)-resistant E. coli (3) and Kl.

[5] = test system: Gn-II: M.morganii (1), Ent. cloacae (2) and Ser. marcescens (2); experiment: MIC, two-fold serial agar dilution, Gn-II; details: Gn-II, 5 strains; Mueller-Hinton agar; read-out: Geometric mean of MIC
Experimental: as §1
Gn-II M.morganii (1), Ent. cloacae (2) and Ser.

[6] = test system: Gn-III: Ps. aeruginosa (7); experiment: MIC, two-fold serial agar dilution, Gn-III; details: Pseudomonas aeruginosa, Gn-III, 7 strains; Mueller-Hinton agar; read-out: Geometric mean of MIC
Experimental: as §1
Gn-III Ps. aeruginosa (7).

For `CC(C)(O/N=C(\C(=O)NC1C(=O)N2C(C(=O)O)=C(/C=C/Cn3cnc4cc(O)c(O)cc43)CS[C@H]12)c1csc(N)n1)C(=O)O` (stereo partly shown) [Io, 7-[(Z)-2-(2-Aminothiazol-4-yl)-2-(1-methyl-1-carboxyethoxy-imino)acetamido]-3-[(E)-3-(5,6-dihydroxybenzimidazol-1-yl)-1-propen-1-yl]-3-cephem-4-carboxylic acid], the MIC (B. subtilis PCI 219) was 12.5 µg/mL (≈ 19.4 µM), the MIC (C. freundii GN 7391) was 25 µg/mL (≈ 38.8 µM) and the MIC (C. terrigena IFO 12685) was 3.1 µg/mL (≈ 4.82 µM). For the same compound, the MIC (E. cloacae IPM-12) was 12.5 µg/mL (≈ 19.4 µM), the MIC (E. coli 255) was 0.2 µg/mL (≈ 0.311 µM) and the MIC (E. faecalis A9808) was over 100 µg/mL. It also gave an MIC (E. faecium A24817) of over 100 µg/mL, an MIC (K. pneumoniae PCI 602) of 0.05 µg/mL (≈ 0.0777 µM) and an MIC (M. luteus 1001) of 6.3 µg/mL (≈ 9.79 µM). It also gave an MIC (M. morgani 1510/9) of 0.8 µg/mL (≈ 1.24 µM), an MIC (M. morgani 1510) of 3.1 µg/mL (≈ 4.82 µM) and an MIC (P. aeruginosa A20599) of 0.8 µg/mL (≈ 1.24 µM). For the same compound, the MIC (P. aeruginosa IPM-8) was 0.4 µg/mL (≈ 0.621 µM), the MIC (P. aeruginosa IPM-9) was 25 µg/mL (≈ 38.8 µM) and the MIC (P. aeruginosa KKA 19) was 0.8 µg/mL (≈ 1.24 µM). For the same compound, the MIC (P. cepacia A21213) was 6.3 µg/mL (≈ 9.79 µM), the MIC (P. cepacia No. 651) was 6.3 µg/mL (≈ 9.79 µM) and the MIC (P. mirabilis IFO-2849) was 0.2 µg/mL (≈ 0.311 µM). The MIC (P. rettgeri IPM-14) was 1.6 µg/mL (≈ 2.49 µM), the MIC (P. vulgaris IPM-13) was 50 µg/mL (≈ 77.7 µM) and the MIC (S. aureus 209P) was 12.5 µg/mL (≈ 19.4 µM). It also gave an MIC (S. aureus 4-1015 (MRSA)) of over 100 µg/mL, an MIC (S. aureus IPM-24 (MRSA)) of 100 µg/mL (≈ 155 µM) and an MIC (S. epidermidis 11-1230) of 50 µg/mL (≈ 77.7 µM). It also gave an MIC (S. marcescens IPM-15) of over 100 µg/mL, an MIC (S. marcescens IPM-16) of 25 µg/mL (≈ 38.8 µM) and an MIC (X. maltophilia GN 12873) of 3.1 µg/mL (≈ 4.82 µM). It also gave an MIC (X. maltophilia No. 661) of 1.6 µg/mL (≈ 2.49 µM), an MIC (E. coli Juhl A15119) of 1.6 µg/mL (≈ 2.49 µM) and an MIC (P. aeruginosa A9843A) of 0.4 µg/mL (≈ 0.621 µM). It also gave an MIC (S. aureus Smith) of 25 µg/mL (≈ 38.8 µM).
`CC(C)(O/N=C(\C(=O)NC1C(=O)N2C(C(=O)[O-])=C(/C=C/C[N+](C)(C)CCc3ccc(O)c(O)c3)CS[C@H]12)c1csc(N)n1)C(=O)O` (stereo partly shown) [Iq, 7-[(Z)-2-(2-Aminothiazol-4-yl)-2-(1-carboxy-1-methylethoxy-imino)acetamido]-3-[(E)-3-(3,4-dihydroxyphenethyldimethyl-ammonio)-1-propen-1-yl]-3-cephem-4-carboxylate] gave an MIC [1] of 13 µg/mL (≈ 19.3 µM), an MIC [2] of 25 µg/mL (≈ 37.1 µM) and an MIC [3] of 0.17 µg/mL (≈ 0.252 µM). It also gave an MIC [4] of 0.13 µg/mL (≈ 0.193 µM), an MIC [5] of 0.8 µg/mL (≈ 1.19 µM) and an MIC [6] of 0.59 µg/mL (≈ 0.874 µM).
